Earlier results, collected in patent US8058304B2, “Merged ion channel modulating compounds and uses thereof” (Cardiome Pharma Corp., priority 2004, dated 2011).

Tested on: patients with left ventricular dysfunction after recent and remote myocardial infarction
Settings: optically pure d-sotalol; SWORD study, Lancet 1996

In the case of `CC(C)NC[C@@H](O)c1ccc(NS(C)(=O)=O)cc1` [d-sotalol], the “increased mortality compared to placebo” value is given as 65%.
